The source of these data is ChEMBL document CHEMBL4130475, “Lorneic Acid Analogues from an Endophytic Actinomycete” (J Nat Prod, 2017).

In assay [1] the target is T1, Tyrosinase (Agaricus bisporus) (UniProt O42713).
T1 sequence (whole entry): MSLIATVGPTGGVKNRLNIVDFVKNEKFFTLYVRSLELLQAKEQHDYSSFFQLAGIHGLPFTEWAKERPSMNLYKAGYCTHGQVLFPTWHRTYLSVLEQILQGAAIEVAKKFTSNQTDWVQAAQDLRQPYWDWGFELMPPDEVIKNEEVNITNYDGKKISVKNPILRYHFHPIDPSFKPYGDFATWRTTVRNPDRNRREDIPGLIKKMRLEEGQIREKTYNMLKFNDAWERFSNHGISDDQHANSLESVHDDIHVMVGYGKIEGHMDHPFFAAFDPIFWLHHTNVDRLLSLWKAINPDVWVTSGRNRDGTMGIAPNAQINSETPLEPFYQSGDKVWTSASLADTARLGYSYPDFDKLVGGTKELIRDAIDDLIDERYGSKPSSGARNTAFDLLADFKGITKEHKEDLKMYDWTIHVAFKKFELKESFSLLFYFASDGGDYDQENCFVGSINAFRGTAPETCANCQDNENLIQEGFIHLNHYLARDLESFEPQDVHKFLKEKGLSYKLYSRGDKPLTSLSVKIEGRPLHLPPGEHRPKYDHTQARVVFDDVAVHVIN
Briefly: Inhibition of mushroom tyrosinase at 0.19 mM using L-DOPA as substrate after 5 mins by spectrophotometric analysis relative to control.

The target of assay [2] is T1, Tyrosinase (Agaricus bisporus). Kind of assay: Inhibition of mushroom tyrosinase at 0.11 mM using L-DOPA as substrate after 5 mins by spectrophotometric analysis relative to control.
For assay [3] the target is unchanged. Kind of assay: Inhibition of mushroom tyrosinase at 0.18 mM using L-DOPA as substrate after 5 mins by spectrophotometric analysis relative to control.

Molecule `CC/C=C/c1cc(C)ccc1/C=C/CCCC(=O)O` registered an inhibition in assay [1] of 12.9%. Consider `CCCC(SSCC(NC(C)=O)C(=O)O)c1cc(C)ccc1/C=C/CCCC(=O)O` (stereo not drawn), for which the inhibition in assay [2] was 18.9%. The molecule `CCCC(O)c1cc(C)ccc1/C=C/CCCC(=O)O` (stereo not drawn) registered an inhibition in assay [3] of 27%.
